How the values were obtained:
[1] = Particle size of PF-06650833 by milling process; type: physicochemical; settings: PF-06650833 particles
[2] = Combination oral pharmacokinetic study of PF-06651600 and PF-06650833 in rat; settings: male Wistar Han rat, PF-06651600 10 and 50 mg/kg, PF-06650833 30 and 100 mg/kg
Description: Doses of 1-((2S,5R)-5-((7H-pyrrolo[2,3-d]pyrimidin-4-yl)amino)-2-methylpiperidin-1-yl)prop-2-en-1-one were 10 and 50 mg/kg and 1-(((2S,3S,4S)-3-ethyl-4-fluoro-5-oxopyrrolidin-2-yl)methoxy)-7-methoxyisoquinoline-6-carboxamide were 30 and 100 mg/kg in male Wistar Han.

[3] = tested on: PBMC and HUVEC+T cell receptor (TCR) ligands; test: BioMAP SAg system; type: cell-based, human; settings: for Inhibition of biomarker readouts in the SAg system: T cell-driven Th1 vascular inflammation, concentrations of FIGS. 12-16
Description: (§1) The BioMAP systems consist of human primary cell-based systems designed to model different aspects of the human body in an in vitro format. The 12 systems tested characterized the test compounds across a broad set of systems modeling various human disease states. BioMAP systems were constructed with one or more primary cell types from healthy human donors, with stimuli (such as cytokines or growth factors) added to capture relevant signaling networks that naturally occur in human tissue or pathological conditions. Vascular biology was modeled in both a Th1 (3C system) and a Th2 (4H system) inflammatory environment, as well as in a Th1 inflammatory state specific to arterial smooth muscle cells (CASM3C system). Additional systems recapitulated aspects of the systemic immune response that included monocyte-driven Th1 inflammation (LPS system) or T cell stimulation (SAg system), chronic Th1 inflammation driven by macrophage activation (IMphg system) and the T cell-dependent activation of B cells that occurs in germinal centers (BT system). The BE3C system (Th1) and the BF4T system (Th2) represented airway inflammation of the lung, while the MyoF system modeled myofibroblast-lung tissue remodeling. Lastly, skin biology was addressed in the KF3CT system modeled Th1 cutaneous inflammation and the HDF3CGF system modeled wound healing.
(§2) All cells were from a pool of multiple donors (n=2-6), commercially purchased and handled according to the recommendations of the manufacturers. Human blood derived CD14+ monocytes were differentiated into macrophages in vitro before being added to the IMphg system. Abbreviations were used as follows: human umbilical vein endothelial cells (HUVEC), peripheral blood mononuclear cells (PBMC), human neonatal dermal fibroblasts (HDFn), B cell receptor (BCR), T cell receptor (TCR) and toll-like receptor (TLR). Cell types and stimuli used in each system were as follows:
(§3) 3C system [HUVEC+(IL-1β, TNFα and IFNγ)]; 4H system [HUVEC+(IL-4 and histamine)]; LPS system [PBMC and HUVEC+LPS (TLR4 ligand)]; SAg system [PBMC and HUVEC+T cell receptor (TCR) ligands]; BT system [CD19+B cells and PBMC+(α-IgM and TCR ligands)]; BF4T system [bronchial epithelial cells and HDFn+(TNFα and IL-4)]; BE3C system [bronchial epithelial cells+(IL-1p, TNFα and IFNγ)]; CASM3C system [coronary artery smooth muscle cells+(IL-1p, TNFα and IFNγ)]; HDF3CGF system [HDFn+(IL-1β, TNFα, IFNγ, EGF, bFGF and PDGF-BB)]; KF3CT system [keratinocytes and HDFn+(IL-1β, TNFα and IFNγ)]; MyoF system [differentiated lung myofibroblasts+(TNFα and TGFβ)]; and IMphg system [HUVEC and M1 macrophages+Zymosan (TLR2 ligand)].
(§4) Systems were derived from either single cell types or co-culture systems. Adherent cell types were cultured in 96 or 384-well plates until confluence, followed by the addition of PBMC (SAg and LPS systems). The BT system consisted of CD19+B cells co-cultured with PBMC and stimulated with a BCR activator and low levels of TCR stimulation. Test agents were prepared in DMSO (final concentration <0.1%) and were added 1 hour before stimulation, and remained in culture for 24 hours or as otherwise indicated (48-hrs, MyoF system; 72-hrs, BT system (soluble readouts); 168-hrs, BT system (secreted IgG)). Each plate contained drug controls (e.g., legacy control test agent colchicine at 1.1 μM), negative controls (e.g., non-stimulated conditions) and vehicle controls (e.g., 0.1% DMSO) appropriate for each system. Direct ELISA was used to measure biomarker levels of cell-associated and cell membrane targets. Soluble factors from supernatants were quantified using either HTRF® detection, bead-based multiplex immunoassay or capture ELISA. Overt adverse effects of test agents on cell proliferation and viability (cytotoxicity) were detected by sulforhodamine B (SRB) staining, for adherent cells, and alamarBlue® reduction for cells in suspension.

[4] = tested on: HDFn+(IL-1β, TNFα, IFNγ, EGF, bFGF and PDGF-BB); test: BioMAP HDF3CGF system; type: cell-based, human; settings: wound healing, Th1-type inflammation; concentrations of FIGS. 12-16
Description: as §1, §2, §3
as §4, with “The BT system consisted of CD19+B cells co-cultured with PBMC and stimulated with a BCR activator and low levels of TCR stimulation.” left out, “Each plate contained drug controls (e.g., legacy control test agent colchicine at 1.1 μM), negative controls (e.g., non-stimulated conditions) and vehicle controls (e.g., 0.1% DMSO) appropriate for each system. Direct ELISA was used to measure biomarker levels of cell-associated and cell membrane targets.” left out

[5] = tested on: PBMC and HUVEC+LPS (TLR4 ligand); test: BioMAP LPS system; type: cell-based, human; settings: monocyte-driven Th1 inflammation, concentrations of FIGS. 12-14
Description: as §1, §2, §3
as §4, with “suspension. […]” for “suspension.”

[6] = tested on: human primary cell-based systems; test: BioMAP panel of 12 systems; settings: BioMAP profile, PF-06651600 200-5400 nM
Description: as §1, §2, §3
as §4, with “suspension. […]” for “suspension.”

[7] = tested on: CD19+B cells and PBMC+(α-IgM and TCR ligands); test: BioMAP BT system; type: cell-based, human; settings: for Inhibition of biomarker readouts in the BT system: T cell dependent B cell activation, concentrations of FIGS. 12-14; for B cell proliferation in the BT system: concentrations of FIGS. 13-14
Description: as §1, §2, §3
as §4, with “suspension. […]” for “suspension.”

[8] = listed as 1-((2S,5R)-5-((7H-Pyrrolo[2,3-d]pyrimidin-4-yl)amino)-2-methylpiperidin-1-yl)pro
[9] = listed as 1-((2S,5R)-5-((7H-pyrrolo[2,3-d]pyrimidin-4-yl)amino)-2-methylpiperidin-1-yl)pro

Particle size D[4, 3] [1] [μm] | Particle size D[v, 0.1] [1] [μm] | Particle size D[v, 0.5] [1] [μm] | Particle size D[v, 0.9] [1] [μm] | Structure (SMILES) | Effects of PF-06650833 on the pharmacokinetics of PF-06651600 [2] | Inhibition of biomarker readouts in the SAg system [3, 8] | Inhibition of biomarker readouts in the SAg system [3, 9] | Proliferation of T cells in the SAg system ([3]; concentrations of FIGS. 13-14) | Inhibition of biomarker readouts in the HDF3CGF system [4] | Inhibition of biomarker readouts in the LPS system [5, 8] | Inhibition of biomarker readouts in the LPS system [5, 9] | Immunomodulatory activities: Decreased Activity ([6]; PF-06650833 19-500 nM, tofacitinib 37-1000 nM) | Tissue Remodeling Activities: Decreased Activity [6] | Inhibition of biomarker readouts in the BT system [7, 8] | Inhibition of biomarker readouts in the BT system [7, 9] | B cell proliferation in the BT system [7, 8] | B cell proliferation in the BT system [7, 9]
17.0 | 2.0 | 10.0 | 35.0 | CC[C@@H]1[C@H](F)C(=O)N[C@@H]1COc1nccc2cc(C(N)=O)c(OC)cc12 [Fitzmilled, 1-(((2S,3S,4S)-3-Ethyl-4-fluoro-5-oxopyrrolidin-2-yl)methoxy)-7-methoxyisoquinoline-6-carboxamide] |  |  |  |  |  |  |  |  |  |  |  |  | 
4.6 | 0.7 | 3.9 | 9.6 | CC[C@@H]1[C@H](F)C(=O)N[C@@H]1COc1nccc2cc(C(N)=O)c(OC)cc12 [Jetmilled, 1-(((2S,3S,4S)-3-Ethyl-4-fluoro-5-oxopyrrolidin-2-yl)methoxy)-7-methoxyisoquinoline-6-carboxamide] |  |  |  |  |  |  |  |  |  |  |  |  | 
 |  |  |  | C=CC(=O)N1C[C@H](Nc2ncnc3[nH]ccc23)CC[C@@H]1C [PF-06651600, 1-((2S,5R)-5-((7H-Pyrrolo[2,3-d]pyrimidin-4-yl)amino)-2-methylpiperidin-1-yl)prop-2-en-1-one] | no significant effects | IL-8 | sIL-s8 levels were reduced | inhibited | PA-I | TNFα | sTNFα levels were reduced | *sIgG, B cell proliferation, T cell proliferation | PAI-I | sIgG, sIL-17A, sIL-17F, sIL-6, and TNFα | sIgG, sIL-17A, sIL-17F, sIL-6, and sTNFα | inhibited | B cell anti-proliferative activity
28.4 | 4.6 | 22.3 | 61.6 | CC[C@@H]1[C@H](F)C(=O)N[C@@H]1COc1nccc2cc(C(N)=O)c(OC)cc12 [Unmilled, 1-(((2S,3S,4S)-3-Ethyl-4-fluoro-5-oxopyrrolidin-2-yl)methoxy)-7-methoxyisoquinoline-6-carboxamide] |  |  |  |  |  |  |  |  |  |  |  |  | 

Reference: patent publication US20220378707A1, “1-(((2S,3S,4S)-3-ETHYL-4-FLUORO-5-OXOPYRROLIDIN-2-YL)METHOXY)-7-METHOXYISOQUINOLINE-6-CARBOXAMIDE COMBINATIONS AND ORAL DOSAGE FORMS” (Pfizer Inc., priority 2019, published 2022)
